Values after ≈ are worked out from the molar mass of the structure shown. Where two headings read alike, the source gives them in different places.
Assays:
bovine cytochrome bc1 = target: T1, bovine cytochrome bc1 (Bos taurus, UniProt P00157); assay: Bovine cytochrome bc1 activity assay; type: biochemical; conditions: triplicate
T1 construct: Crude mitochondria were isolated from fresh bovine hearts; from tissue; host or cells: bovine heart mitochondria
Experimental: Cytochrome bc1 was purified from mitochondria, as previously described. Crude mitochondria were isolated from fresh bovine hearts and solubilized with the addition of dodecyl-maltoside (DDM). The solubilized protein was loaded onto a 50 mL DEAE Sepharose CL6B (GE Healthcare, Uppsala, Sweden) column pre-equilibrated in and washed with three column volumes of 50 mM KPi pH 7.5, 250 mM NaCl, 0.5 mM EDTA, and 0.01% DDM. The bound protein was eluted along a linear gradient from 250 to 500 mM NaCl. Cytochrome bc1 fractions were pooled and concentrated in a centrifugal ultrafilter (MWCO. 100 kDa) and loaded onto a 120 mL Sephacryl S300 column (GE Healthcare, Uppsala, Sweden) equilibrated in and eluted at a flow rate of 0.5 mL/min with 20 mM KMOPS pH 7.2, 100 mM NaCl, 0.5 mM EDTA, 0.01% DDM. Cytochrome bc1 fractions were pooled and concentrated to 40 mg/mL. PEG fractionation with an increasing amount of PEG4000 was used to precipitate cytochrome bc1. […] The inhibitors were dissolved in DMSO at the concentration of 50 mM and 5 μM cytochrome bc1 was incubated with 50 μM inhibitor (10-fold molar excess) at 4 °C for 12 h.
The inhibitors were added to the assay without prior incubation. The reaction was initiated by the addition of 50 μM decylubiquinol (Sigma-Aldrich, St. Louis, MO, USA).

[1] = tested on: Plasmodium falciparum 3D7; conditions: drug sensitive P. falciparum 3D7 whole cells; cited from earlier work
[2] = tested on: Plasmodium falciparum FCR3A strain; set-up: method as in PMID 23234553; conditions: FCR3A strain used as atovaquone-resistant parasite (footnote †); read-out: IC50 (nM) (TM90C2B); cited from earlier work
[3] = target: PfNDH2 (P. falciparum mitochondrial type II NADH: ubiquinone oxidoreductase); conditions: cited from earlier work
[4] = target: T2, Pfbc1 (P. falciparum cytochrome bc1) (Plasmodium falciparum, UniProt Q02768); conditions: cited from earlier work
T2 sequence (Q02768 1-376): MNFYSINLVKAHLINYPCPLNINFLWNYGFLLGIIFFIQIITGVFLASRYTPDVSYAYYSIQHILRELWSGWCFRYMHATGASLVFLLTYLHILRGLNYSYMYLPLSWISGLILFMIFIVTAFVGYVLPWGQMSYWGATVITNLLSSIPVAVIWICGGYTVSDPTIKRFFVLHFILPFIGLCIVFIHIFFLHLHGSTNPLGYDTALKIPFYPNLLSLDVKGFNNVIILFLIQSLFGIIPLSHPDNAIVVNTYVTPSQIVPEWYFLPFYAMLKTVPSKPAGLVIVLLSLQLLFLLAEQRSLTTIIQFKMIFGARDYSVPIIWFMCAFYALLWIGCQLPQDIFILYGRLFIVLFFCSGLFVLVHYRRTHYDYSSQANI

[5] = tested on: Plasmodium falciparum TM90C2B; conditions: atovaquone resistant parasite TM90C2B; cited from earlier work
[6] = target: T2, Pfbc1 (P. falciparum cytochrome bc1); assay: Pf cytochrome bc1 enzyme inhibition; type: biochemical; conditions: at 100 nM; single point concentration only, full IC50 not available; measured in this work
Description: Table 1 Inhibition profiles of selected antimalarial compounds against whole cells of Plasmodium falciparum (Pf) (3D7 and TM90C2B strains) and individual mitochondrial enzymes. | column: IC50 (nM) (Pfbc1) *

[7] = set-up: method as in doi:10.1039/C5MD00062A; conditions: at pH 1; cited from earlier work
[8] = single point concentration only, full IC50 not available

Compound	inhibition at 0.1 µM (bovine cytochrome bc1) [%]	inhibition at 1 µM (bovine cytochrome bc1) [%]	inhibition at 0.1 µM [6] [%]	IC50 [1] [nM]	IC50 [2] [nM]	IC50 [3, 8] [nM]	IC50 [4] [nM]	IC50 [5] [nM]	IC50 [3] [nM]	IC50 (nM) (TM90C2B) [5]	aqueous solubility [7] [µM]
Cc1[nH]c(CO)c(-c2ccc(Oc3ccc(OC(F)(F)F)cc3)cc2)c(=O)c1Cl [GSK932121]	65 ± 4	82 ± 5		6	6	> 10000	7				
Cc1[nH]c(C)c(-c2ccc(Oc3ccc(OC(F)(F)F)cc3)cc2)c(=O)c1Cl [GW844520]	59 ± 6	79 ± 3		5	2	> 10000	2				
COc1ccc2c(=O)c(C)c(-c3cncc(-c4ccc(OC(F)(F)F)cc4)c3)[nH]c2c1 [SCR0911]	9 ± 2	72 ± 5	80	12 ± 3		> 1000		7.2			7.8 (≈ 3.33 µg/mL)

Now from value to compound, other results behind:

inhibition at 0.1 µM (bovine cytochrome bc1) [%]	inhibition at 1 µM (bovine cytochrome bc1) [%]	inhibition at 0.1 µM [6] [%]	Compound	IC50 [1] [nM]	IC50 [2] [nM]	IC50 [3, 8] [nM]	IC50 [4] [nM]	IC50 [5] [nM]	IC50 [3] [nM]	IC50 (nM) (TM90C2B) [5]	aqueous solubility [7] [µM]
7 ± 1	61 ± 3		Cc1[nH]c2ccccc2c(=O)c1-c1ccc(Cc2ccc(OC(F)(F)F)cc2)cc1 [WDH-1U-4]	36 ± 6			< 10	5 ± 2	492		
81 ± 4	93 ± 2		Cc1c(-c2ccc(Cc3ccc(OC(F)(F)F)cc3)cc2)n(O)c2ccccc2c1=O [RKA066]	22 ± 0.4			28	217 ± 18	55	triple-digit nanomolar	
22 ± 5	51 ± 7		COc1cc2[nH]c(C)c(-c3ccc(Oc4ccc(OC(F)(F)F)cc4)cc3)c(=O)c2cc1Cl [ELQ300]	2.2			0.56	1.7			< 1

From PMC9330653, “Targeting the Ubiquinol-Reduction (Qi) Site of the Mitochondrial Cytochrome bc1 Complex for the Development of Next Generation Quinolone Antimalarials” (Biology, 2022)
